From patent US20250332080A1, “Skin Cell Energy Booster Composition” (CarboCode S.A., priority 2022, published 2025)

Tested on: Reconstructed Human Epidermis (RHE)
Test: Proteomic (LC-MS/MS) analysis of Reconstructed Human Epidermis treated topically with ceramide in base emulsion
Format: cell-based
Conditions: topical 24 h, 0.01%, 0.03%, 0.15% ceramide in vehicle vs vehicle
Source text: FIGS. 1 to 3 show heatmaps using a log 2 scale with up- or downregulation of respective proteins upon treatment with 0.01% (01), 0.03% (03) and 0.15% (15) of respective ceramide in vehicle as compared to vehicle without ceramide (VEH) (FIG. 1: GlcCerNS, FIG. 2: LacCerNS, FIG. 3: CerNG); detailed experimental setup explained in Example 1.
Material and methods: Reconstructed Human Epidermis (RHE) cell culture was used, as this system mimics the in vivo 3D structure of epidermal tissue as well as the conditions and processes that occur in normal epidermis. RHE were cultured using the medium provided by the manufacturer until analysis. RHE were maintained in survival for 24 hours, before RHE were topically treated with lipid in a base emulsion for 24 h. 3 RHE were treated with base emulsion alone and 3 more remained untreated as a control batch (Ctrl). RHE were incubated under classical cell culture conditions (37° C., 5% CO2).
Sample preparation and LC-MS/MS analysis: Protein was extracted using the Pierce Total Protein Extraction Kit (Thermo Fisher) according to manufacturer's recommendations. The protein was mixed with Laemmli buffer and heated to 37° C. for 30 min. Protein concentration was determined by the BCA method and standardized for all samples. The samples were separated by SDS-PAGE and digested with trypsin overnight. The peptides generated were acidified and separated. The mass spectra were queried using Proteome Discoverer (version 2.5). The resulting MS/MS data were queried against the Homo sapiens proteome UP000005640 (20371 reviewed entries). Results were filtered based on unique peptides>2, and global peptide scores. Analyses were performed using Proteome Discoverer 2.5 to check for overall sample quality.
Bioinformatics and statistical analysis: Proteomic analysis returned a mean total of 34961 high-quality peptides corresponding to a mean 2422 identifiable and quantifiable RHE proteins among conditions. Proteins with a p-value<0.05 in at least one of the concentrations tested for a lipid were considered significant and used for pairwise comparisons. Relevant proteins were classified by their biological processes and associated pathways using the publicly available gene ontology (GO) database provided by the Gene Ontology Consortium and Reactome. Interactome analysis was performed using Cytoscape combined with STRING.

cytochrome c oxidase subunit 6C protein level	phosphomevalonate kinase protein level	NAD-dependent malic enzyme (mitochondrial) protein level	NADH dehydrogenase [ubiquinone]1 alpha subcomplex subunit 8 protein level	NADH dehydrogenase [ubiquinone]iron-sulfur protein 2 (mitochondrial) protein level	cytochrome c oxidase subunit 2 protein level	cytochrome c oxidase subunit NDUFA4 protein level	Substance	ATP synthase subunit delta (mitochondrial) protein level	ATP synthase subunit g (mitochondrial) protein level	ATP-dependent zinc metalloprotease YME1L1 protein level	cytochrome b-c1 complex subunit 9 protein level
upregulation	upregulation						ceramide NG	upregulation	upregulation		
upregulation	upregulation	upregulation	upregulation	upregulation			Glucosyl ceramide [GlcCer]	upregulation	upregulation	upregulation	
upregulation	upregulation	upregulation			upregulation	upregulation	lactosyl ceramide	upregulation	upregulation	upregulation	upregulation
